Laboratory results as given in publication PMC5578959, “Selective LRRK2 kinase inhibition reduces phosphorylation of endogenous Rab10 and Rab12 in human peripheral mononuclear blood cells” (Scientific Reports, 2017).

Tests used:
Test in all cases: KiNativ profiling in human PBMCs
Type in all cases: binding
[1] = tested on: T1, GCK
T1 construct: purchased ActivX Technologies (KiNativ)
How it was run: (§1)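 Compound concentrations: 1 µM and 0.1 µM, applied to intact human PBMCs; engagement of kinases determined with the KiNativ approach.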

[2] = tested on: MST1,MST2; details: Lys2
How it was run: as §1

[3] = tested on: T2, IRAK1; details: Lys2
T2 construct: purchased ActivX Technologies (KiNativ)
How it was run: as §1

[4] = tested on: T3, CDK5
T3 construct: purchased ActivX Technologies (KiNativ)
How it was run: as §1

[5] = tested on: T4, PFTAIRE1
T4 construct: purchased ActivX Technologies (KiNativ)
How it was run: as §1

[6] = tested on: T5, CDK7; details: Lys2
T5 construct: purchased ActivX Technologies (KiNativ)
How it was run: as §1

[7] = tested on: MAP3K15,MAP3K5,MAP3K6; details: Lys1
How it was run: as §1

[8] = tested on: T6, SNRK
T6 construct: purchased ActivX Technologies (KiNativ)
How it was run: as §1

[9] = tested on: T7, MAP3K6; details: Lys2
T7 construct: purchased ActivX Technologies (KiNativ)
How it was run: as §1

[10] = tested on: T8, DGKA; details: ATP
T8 construct: purchased ActivX Technologies (KiNativ)
How it was run: as §1

[11] = tested on: TAO1,TAO3; details: Lys2
How it was run: as §1

[12] = tested on: T9, NDR2
T9 construct: purchased ActivX Technologies (KiNativ)
How it was run: as §1

[13] = tested on: T10, STLK6
T10 construct: purchased ActivX Technologies (KiNativ)
How it was run: as §1

[14] = tested on: T11, GPRK6; details: Lys2
T11 construct: purchased ActivX Technologies (KiNativ)
How it was run: as §1

[15] = tested on: T12, PIP5K3; details: ATP
T12 construct: purchased ActivX Technologies (KiNativ)
How it was run: as §1

[16] = tested on: T13, RSK1 domain1
T13 construct: RSK1 domain1; purchased ActivX Technologies (KiNativ)
How it was run: as §1

[17] = tested on: MAP3K2,MAP3K3; details: Lys2
How it was run: as §1

[18] = tested on: T14, RSK3 domain1; details: Lys2
T14 construct: RSK3 domain1; purchased ActivX Technologies (KiNativ)
How it was run: as §1

[19] = tested on: T15, TBK1; details: Lys1
T15 construct: purchased ActivX Technologies (KiNativ)
How it was run: as §1

Cn1cc(-c2c[nH]c3ncnc(N4CCOCC4)c23)cc1C#N [PFE-360]
% Inhibition ([1]; 0.1µM, Lys2): 6.5% | % Inhibition ([1]; 1µM, Lys1): 11.4% | % Inhibition ([1]; 1µM, Lys2): -7.7% | % Inhibition ([2]; 0.1µM): 15% | % Inhibition ([2]; 1µM): 39.1% | % Inhibition ([3]; 0.1µM): -6.1% | % Inhibition ([3]; 1µM): -11.8% | % Inhibition ([4]; 0.1µM, Lys1): -2.7% | % Inhibition ([4]; 0.1µM, Lys2): 3.9% | % Inhibition ([4]; 1µM, Lys1): -6.7% | % Inhibition ([4]; 1µM, Lys2): -7.1% | % Inhibition ([5]; 0.1µM, Lys1): 1.9% | % Inhibition ([5]; 0.1µM, Lys2): -4% | % Inhibition ([5]; 1µM, Lys1): -2% | % Inhibition ([5]; 1µM, Lys2): -1.5% | % Inhibition ([6]; 0.1µM): 5% | % Inhibition ([6]; 1µM): -4.6% | % Inhibition ([7]; 0.1µM): 26.2% | % Inhibition ([7]; 1µM): 53.5% | % Inhibition ([8]; 0.1µM, Lys1): 17.1% | % Inhibition ([8]; 0.1µM, Lys2): -21.9% | % Inhibition ([8]; 1µM, Lys1): -2% | % Inhibition ([8]; 1µM, Lys2): -18.7% | % Inhibition ([9]; 0.1µM): -5.9% | % Inhibition ([9]; 1µM): -0.1% | % Inhibition ([10]; 0.1µM): 1.4% | % Inhibition ([10]; 1µM): -4.5% | % Inhibition ([11]; 0.1µM): -0.2% | % Inhibition ([11]; 1µM): -14.3% | % Inhibition ([12]; 0.1µM, Lys1): -18.6% | % Inhibition ([12]; 0.1µM, Lys2): 2.7% | % Inhibition ([12]; 1µM, Lys1): -5.5% | % Inhibition ([12]; 1µM, Lys2): -8.1% | % Inhibition ([13]; 0.1µM, Lys1): -3.3% | % Inhibition ([13]; 0.1µM, Lys2): 11.8% | % Inhibition ([13]; 1µM, Lys1): -20.6% | % Inhibition ([13]; 1µM, Lys2): -10.2% | % Inhibition ([14]; 0.1µM): 5.7% | % Inhibition ([14]; 1µM): 0.4% | % Inhibition ([15]; 0.1µM): -6.1% | % Inhibition ([15]; 1µM): -15.9% | % Inhibition ([16]; 0.1µM, Activation Loop): 4.6% | % Inhibition ([16]; 0.1µM, Lys1): -11.3% | % Inhibition ([16]; 0.1µM, Lys2): -4.4% | % Inhibition ([16]; 1µM, Activation Loop): 1.1% | % Inhibition ([16]; 1µM, Lys1): 3.4% | % Inhibition ([16]; 1µM, Lys2): 10.9% | % Inhibition ([17]; 0.1µM): -2.6% | % Inhibition ([17]; 1µM): -12.9% | % Inhibition ([18]; 0.1µM): 5.5% | % Inhibition ([18]; 1µM): 8.1% | % Inhibition ([19]; 0.1µM): -29% | % Inhibition ([19]; 1µM): 2.1%
